Data on 20 compounds can be found in PubChem BioAssay AID248 (DTP/NCI, 2004).

The assay deals with L1210 leukemia ip in BDF1 mice, survival T/C. The experiment in a line: NCI In Vivo Anticancer Drug Screen. Data for tumor model L1210 Leukemia (intraperitoneal) in B6D2F1 (BDF1) mice. As to conditions: endpoint: mean survival time, higher = longer survival. Summed up: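 Read-out is survival time, reported as the treated-group measurement over the vehicle-control measurement.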

The mark [1] stands for this setting: dose: 100.0 mg/kg/injection, schedule: Q04DX003 (ip), vehicle: Klucel (hydroxypropylcellulose) (HPC).
The mark [2] stands for this setting: dose: 200.0 mg/kg/injection, schedule: Q04DX003 (ip), vehicle: Klucel (hydroxypropylcellulose) (HPC).
[3] abbreviates: dose: 400.0 mg/kg/injection, schedule: Q04DX003 (ip), vehicle: Klucel (hydroxypropylcellulose) (HPC).
Setting [4] is: dose: 100.0 mg/kg/injection, schedule: Q01DX009 (ip), vehicle: Klucel (hydroxypropylcellulose) (HPC).
Where [5] appears, read: dose: 100.0 mg/kg/injection, schedule: Q04DX003 (ip), vehicle: saline with Tween-80.
The mark [6] stands for this setting: dose: 100.0 mg/kg/injection, schedule: Q04DX002 (ip), vehicle: Klucel (hydroxypropylcellulose) (HPC).
Setting [7] is: dose: 200.0 mg/kg/injection, schedule: Q04DX002 (ip), vehicle: Klucel (hydroxypropylcellulose) (HPC).
The mark [8] stands for this setting: dose: 25.0 mg/kg/injection, schedule: Q01DX009 (ip), vehicle: Klucel (hydroxypropylcellulose) (HPC).
The mark [9] stands for this setting: dose: 50.0 mg/kg/injection, schedule: Q01DX009 (ip), vehicle: Klucel (hydroxypropylcellulose) (HPC).
The mark [10] stands for this setting: dose: 100.0 mg/kg/injection, schedule: Q01DX001 (ip), vehicle: saline.
[11] abbreviates: dose: 200.0 mg/kg/injection, schedule: Q01DX001 (ip), vehicle: saline.
The mark [12] stands for this setting: dose: 400.0 mg/kg/injection, schedule: Q01DX001 (ip), vehicle: saline.

“And” between values parts separate entries of the source, which are not always exact repeats. Identical values can stand only once. Inconclusive results and toxic doses are left out.

As for `c1ccc2cc(Nc3ccc(Nc4ccc5ccccc5c4)cc3)ccc2c1`, the T/C runs as follows: (dose: 75.0 mg/kg/injection, schedule: Q01DX009 (ip), vehicle: Klucel (hydroxypropylcellulose) (HPC)) 103 % of control; (dose: 100.0 mg/kg/injection, schedule: Q04DX003 (ip), vehicle: saline) 106 % of control; (dose: 150.0 mg/kg/injection, schedule: Q01DX009 (ip), vehicle: Klucel (hydroxypropylcellulose) (HPC)) 104 % of control; (dose: 200.0 mg/kg/injection, schedule: Q04DX003 (ip), vehicle: saline) 97 % of control; (dose: 300.0 mg/kg/injection, schedule: Q01DX009 (ip), vehicle: Klucel (hydroxypropylcellulose) (HPC)) 110 % of control; (dose: 400.0 mg/kg/injection, schedule: Q04DX003 (ip), vehicle: saline) 100 % of control.
`N#CSCc1ccccc1`: the T/C (dose: 75.0 mg/kg/injection, schedule: Q01DX001 (ip), vehicle: carboxymethylcellulose (CMC)) is 118 % of control; the T/C under setting [1] was 91 % of control; the T/C (dose: 150.0 mg/kg/injection, schedule: Q01DX001 (ip), vehicle: carboxymethylcellulose (CMC)) is 98 % of control; the T/C under setting [2] was 103 % of control; the T/C under setting [3] is 94 % of control.
For `CC(C)=CCO`, the T/C is 96 % of control (dose: 100.0 mg/kg/injection, schedule: Q01DX009 (ip), vehicle: saline); 93 % of control (dose: 200.0 mg/kg/injection, schedule: Q01DX009 (ip), vehicle: saline); 88 % of control (dose: 400.0 mg/kg/injection, schedule: Q01DX009 (ip), vehicle: saline).
Regarding `Cc1cccc(OC(=O)Nc2ccc(C(=O)O)c(O)c2)c1`, the T/C reads like this: (dose: 50.0 mg/kg/injection, schedule: Q04DX003 (ip), vehicle: gum acacia) 96 % of control and 98 % of control; (dose: 100.0 mg/kg/injection, schedule: Q01DX001 (ip), vehicle: gum acacia) 104 % of control and 105 % of control; (dose: 100.0 mg/kg/injection, schedule: Q01DX009 (ip), vehicle: gum acacia) 97 % of control and 88 % of control; (dose: 100.0 mg/kg/injection, schedule: Q04DX002 (ip), vehicle: gum acacia) 94 % of control and 88 % of control; (dose: 100.0 mg/kg/injection, schedule: Q04DX003 (ip), vehicle: gum acacia) 101 % of control and 88 % of control; (dose: 200.0 mg/kg/injection, schedule: Q01DX001 (ip), vehicle: gum acacia) 100 % of control and 107 % of control. In addition, the T/C was 98 % of control and 117 % of control (dose: 200.0 mg/kg/injection, schedule: Q01DX009 (ip), vehicle: gum acacia); 95 % of control and 110 % of control (dose: 200.0 mg/kg/injection, schedule: Q04DX002 (ip), vehicle: gum acacia); 98 % of control and 101 % of control (dose: 200.0 mg/kg/injection, schedule: Q04DX003 (ip), vehicle: gum acacia).
On to `O=C(c1ccc(C(=O)N(c2ccccc2)C2CCCCC2)cc1)N(c1ccccc1)C1CCCCC1`, for which the T/C is, setting by setting: under setting [4], 96 % of control; (dose: 200.0 mg/kg/injection, schedule: Q01DX009 (ip), vehicle: Klucel (hydroxypropylcellulose) (HPC)) 100 % of control; (dose: 400.0 mg/kg/injection, schedule: Q01DX009 (ip), vehicle: Klucel (hydroxypropylcellulose) (HPC)) 86 % of control.
Regarding `O=C(/C=C(\c1ccccc1)c1ccc([N+](=O)[O-])cc1)Nc1ccc(S(=O)(=O)F)cc1`, the T/C runs as follows: under setting [5], 96 % of control; (dose: 200.0 mg/kg/injection, schedule: Q04DX003 (ip), vehicle: saline with Tween-80) 91 % of control; (dose: 400.0 mg/kg/injection, schedule: Q04DX003 (ip), vehicle: saline with Tween-80) 96 % of control.
As to `COc1ccc(/C=C2\N=C(c3cccc([N+](=O)[O-])c3)OC2=O)cc1OC`, the T/C was 89 % of control under setting [6]; 110 % of control under setting [7]; 100 % of control (dose: 400.0 mg/kg/injection, schedule: Q04DX002 (ip), vehicle: Klucel (hydroxypropylcellulose) (HPC)).
On to `COc1cccc2c1C(=O)c1c(O)c3c(c(O)c1C2=O)C[C@@](O)(C(=O)COC(=O)c1ccccc1)C[C@@H]3OC1CC(N)C(O)C(C)O1` (some centres not stated), for which the T/C by setting is: (dose: 0.5 mg/kg/injection, schedule: Q04DX003 (ip), vehicle: Klucel (hydroxypropylcellulose) (HPC)) 117 % of control; (dose: 0.8 mg/kg/injection, schedule: Q04DX003 (ip), vehicle: Klucel (hydroxypropylcellulose) (HPC)) 118 % of control; (dose: 4.4 mg/kg/injection, schedule: Q04DX003 (ip), vehicle: Klucel (hydroxypropylcellulose) (HPC)) 152 % of control; (dose: 6.8 mg/kg/injection, schedule: Q04DX003 (ip), vehicle: Klucel (hydroxypropylcellulose) (HPC)) 165 % of control; (dose: 10.0 mg/kg/injection, schedule: Q04DX003 (ip), vehicle: Klucel (hydroxypropylcellulose) (HPC)) 172 % of control.
As for `CC(=O)OC1C(=O)C(C)(C)CN(C(C)(C)C)CC1(C)C` (configuration not stated), the T/C was 102 % of control (dose: 100.0 mg/kg/injection, schedule: Q01DX001 (ip), vehicle: saline sonified); 91 % of control (dose: 200.0 mg/kg/injection, schedule: Q01DX001 (ip), vehicle: saline sonified); 90 % of control (dose: 400.0 mg/kg/injection, schedule: Q01DX001 (ip), vehicle: saline sonified).
Turning to `COc1ccc2c(c1)CC/C(=C\c1ccc(OCCN3CCCC3)cc1)C2=O`, the T/C was 105 % of control (dose: 12.5 mg/kg/injection, schedule: Q04DX003 (ip), vehicle: saline with Tween-80); 107 % of control (dose: 25.0 mg/kg/injection, schedule: Q04DX003 (ip), vehicle: saline with Tween-80); 100 % of control (dose: 50.0 mg/kg/injection, schedule: Q04DX003 (ip), vehicle: saline with Tween-80); 111 % of control under setting [5].
For the compound `OC(c1ccccc1)C1C(c2ccccc2)N1C1CCCCC1` (configuration not stated), the T/C was 97 % of control under setting [8], 96 % of control under setting [9], 101 % of control under setting [1] and 98 % of control under setting [2].
For the compound `O=C(O)CNc1cccnc1`, the T/C is, setting by setting: under setting [8], 95 % of control; under setting [9], 100 % of control; under setting [4], 101 % of control.
For the compound `O=C(N/N=C/c1ccc2c(c1)CCC2)c1cccs1`, the T/C under setting [1] was 97 % of control, the T/C under setting [2] is 103 % of control and the T/C under setting [3] is 107 % of control.
As for `Nc1ccc(S(=O)(=O)NS(=O)(=O)c2ccccc2)cc1`, the T/C was 95 % of control under setting [10], 93 % of control under setting [11] and 101 % of control under setting [12].
Consider `NC(=O)c1cccn1-c1cccc2c(-n3cccc3C(N)=O)cccc12`, for which the T/C (dose: 50.0 mg/kg/injection, schedule: Q04DX002 (ip), vehicle: saline with Tween-80) was 89 % of control.
Turning to `N=C(N)Sc1cnc2ccccc2n1`, the T/C was 95 % of control under setting [10], 97 % of control under setting [11] and 105 % of control under setting [12].
`CSc1nccc(=S)[nH]1`: the T/C is, setting by setting: (dose: 50.0 mg/kg/injection, schedule: Q04DX002 (ip), vehicle: Klucel (hydroxypropylcellulose) (HPC)) 88 % of control; under setting [6], 92 % of control; under setting [7], 95 % of control.
For `O=C/C=C/C=C/C=C/C=C/C=C\c1ccccc1`, the T/C by setting is: (dose: 75.0 mg/kg/injection, schedule: Q01DX001 (ip), vehicle: other) 92 % of control; (dose: 150.0 mg/kg/injection, schedule: Q01DX001 (ip), vehicle: other) 96 % of control; (dose: 300.0 mg/kg/injection, schedule: Q01DX001 (ip), vehicle: other) 100 % of control.
For `CNCCNC`, the T/C is, setting by setting: under setting [10], 94 % of control; (dose: 100.0 mg/kg/injection, schedule: Q04DX002 (ip), vehicle: saline) 103 % of control; under setting [11], 102 % of control; (dose: 200.0 mg/kg/injection, schedule: Q04DX002 (ip), vehicle: saline) 103 % of control; under setting [12], 96 % of control; (dose: 400.0 mg/kg/injection, schedule: Q04DX002 (ip), vehicle: saline) 90 % of control.
On to `CN(C)C(=O)OCC[N+](C)(C)CCCCCCCCCC[N+](C)(C)CCOC(=O)N(C)C`, for which the T/C is 94 % of control (dose: 0.63 mg/kg/injection, schedule: Q01DX009 (ip), vehicle: saline); 98 % of control (dose: 1.25 mg/kg/injection, schedule: Q01DX009 (ip), vehicle: saline); 93 % of control (dose: 2.5 mg/kg/injection, schedule: Q01DX009 (ip), vehicle: saline); 94 % of control (dose: 5.0 mg/kg/injection, schedule: Q04DX003 (ip), vehicle: saline).
